Laboratory results reported in patent US8785399B2, “Antibacterial peptides” (Spiderbiotech S.R.A., priority 2008, dated 2014).
Values after ≈ are worked out from the molar mass of the structure shown. Positions of bridges follow the written chain, without caps; N, C: chain ends. Non-standard residues stand in square brackets, D forms with d. Residues, ends and D or L forms follow the SMILES beside them. Chains are numbered I, II in the order given. Aoc = NCCCCCCCC(=O)O

How the values were obtained:
[1] = test system: fresh human erythrocytes; type: cell-based
Procedure: The haemolysis assay was adapted from the method of Shin et al. (Ref. 12). Fresh human erythrocytes were used to test the haemolytic activities of the peptides. Whole blood was collected in a sterile tube with a 4% w/v sodium citrate solution (in a 1:10 ratio sodium citrate:whole blood), put in ice and centrifuged at 1000 g for 5 minutes at 4° C.
The supernatant, including the leucocytes above the erythrocyte pellet, was removed carefully and discarded. Intact erytrocytes were washed three times with 2 volumes (1 mL) of prechilled pyrogen-free saline (PBS 1×). Erythrocyte suspensions were adjusted to 0.8% (8 ul in 1 mL or 160 uL in 20 mL) of PBS 1×. […]
Subsequently, intact erythrocyte were pelletted by centrifugation at 1000 g for 5 minutes at 4° C. One hundred microliters of supernatant from each well was transferred accordingly to a new 96-well microtiter plate, and the amount of haemoglobin released into the supernatant was determined by reading the absorbance at 414 nm against a reference wavelength of 490 nm. […]
The haemolysis was determined by two different assays as described in Example VIII. In Tables 7-9 all haemolysis percentage values, determined by UV-VIS spectrophotometry, are reported. […]

[2] = test system: P. aeruginosa ATCC 27853 24-hours biofilm; type: cell-based, Pseudomonas aeruginosa; details: ATCC 27853, 4 h
Procedure: An exponential phase inoculum of Pseudomonas aeruginosa ATCC 27853 of approximately 1×10^7 CFU/mL was poured into a reagent reservoir of Innovotech plates for MBEC™ High-throughput assay (Innovotech Inc., Edmonton, Canada). 22 mL of inoculum were added to the trough and the peg lid was placed onto. The device was placed on the shaking incubator at 80 rpm in a humidified box at 37° C.
After 24 hours of incubation, the pegs were rinsed into a plate containing 200 uL of physiological solution to remove loosely adherent planktonic cells from the biofilm and then were put in a microplate containing 200 uL of different antibiotic solutions serially diluted in TSB.
Following 4 hours of contact and incubation at 37° C. on the shaking incubator, the peg lid was removed from the trough and submersed in a rinse plate for 2 minutes.
Then a new microtitre with saline solution containing the sample pegs was put in the tray of the ultrasonic cleaner and sonicated for 30 minutes to disrupt biofilm from the surface of the 96 pegs.
Duplicate 0.01 or 0.005 mL aliquots of ten fold serial dilution of each well, were spread on MHA plate and colonies were read for viable cell counting after 24 hours of incubation.

[3] = In vitro cytotoxicity, MTT dye reduction assay, HepG2; type: cell-based; details: human, HepG2 cells (human hepatocellular liver carcinoma)
Procedure: (§1) HeLa (Human epithelial carcinoma cell line), HepG2 (Human hepatocellular liver carcinoma cell line) and HaCat (human keratinocyte) were grown to confluence and then plated at 20,000, 12,500 and 30,000 cells per well (the optimal cell count for each cell line has been previously determined). After 24 hours, ID24 in DMEM without FBS was added at concentration ranging from 800 and 100 ug/ml. As positive controls 100 uL of cells washed with medium without serum that represent 100% viability and, as negative, 100 uL medium without serum were also added. After 24 hours of incubation at 37° C. in a 5% v/v CO2 atmosphere, 10 ul MTT Reagent [3-(4,5-dimethylthiazol-2-yl)-2,5-diphenyl […] bromide, final concentration 0.5 mg/mL) was added to each well and incubated for 2 to 4 hours. Solubilization of formazan, formed by metabolic reduction of MTT, was obtained using the stop mix solution (10% w/v sodium dodecyl sulphate, 45% v/v dimethyl formamide, adjusted to pH 4.5 with glacial acetic acid). The plates were read in a microplate spectrophotometer. (Biorad, Benchmark plus). Cultures exposed to ID24 or exposed to the medium alone were measured spectrophotometrically at dual wave-length (565-650 nm). The experiment was carried out in three replicates.

[4] = In vitro cytotoxicity, MTT dye reduction assay, HeLa; type: cell-based; details: human, HeLa cells (human epithelial carcinoma)
Procedure: as §1

[5] = test system: Pseudomonas aeruginosa ATCC 27853; experiment: MIC by broth microdilution, P. aeruginosa reference strain; type: cell-based; details: Table 4
Procedure: (§2) Determination of MIC. MICs were determined in MHB by the broth microdilution methodology, according to CLSI procedure (formerly NCCLS, Ref. 11) by using final bacterial inocula of 1-5×10^5 CFU/mL. Assays were performed in sterile 96-well microtiter plates with round bottom wells (Corning Costar). Plates were incubated at 37° C. and read after 20-24 h. MIC was defined as the lowest drug concentration causing complete suppression of visible bacterial growth. All compounds were dissolved in (5% v/v DMSO).
These peptides were synthesized individually, in order to assay the activity of each sequence.

[6] = test system: E. coli EC47; type: cell-based, Escherichia coli
Procedure: Test and reference compounds, ID24 and colistin sodium methanesufonate (CMS) respectively, were dissolved in 0.1 M phosphate-buffered saline pH 6.9, at the required drug concentrations. Solutions were made just before administration, and stored at 4° C. until the end of scheduled treatments, ID24 MIC value on E. coli EC47 strain is 2 ug/mL [MIC was determined by the broth microdilution method in Muller Hinton medium (NCCLS guidelines), using bacterial inoculum of approximately 10^5 CFU/mL].

[7] = In vitro cytotoxicity, MTT dye reduction assay, HaCat; type: cell-based; details: human, HaCat cells (human keratinocytes)
Procedure: as §1

[8] = test system: Proteus mirabilis; type: cell-based
Procedure: as §2
(§3) These compounds were tested against a large panel of Gram-negative clinical isolates and the relative MIC values were reported in Table 5 (parts 1-3)

[9] = test system: Escherichia coli; type: cell-based
Procedure: as §2, §3

[10] = test system: Klebsiella pneumoniae; type: cell-based
Procedure: as §2, §3

[11] = test system: Acinetobacter baumannii; type: cell-based
Procedure: as §2, §3

[12] = test system: Acinetobacter iwoffi; type: cell-based
Procedure: as §2, §3

[13] = test system: Pseudomonas aeruginosa; type: cell-based
Procedure: as §2, §3

[14] = test system: Klebsiella oxytoca; type: cell-based
Procedure: as §2, §3

[15] = test system: Stenotrophomonas maltophilia; type: cell-based
Procedure: as §2, §3

[16] = test system: Enterobacter cloacae; type: cell-based
Procedure: as §2, §3

[17] = test system: Serratia marcescens; type: cell-based
Procedure: as §2, §3

[18] = test system: Shigella; experiment: MIC vs clinical isolates, Shigella; type: cell-based; details: Shigella strain ND024108
Procedure: as §2, §3

[19] = In vivo acute toxicity; parameters: species or system CD1 mice; details: for symptoms and behavioural alterations (Irwin Test): female CD1 mice
Procedure: 9-10 weeks female CD1 mice (Charles River Lab. Italia s.r.l. Via Indipendenza, 11-23885 Calco (LC), Italy), weighing on average 28.23 g on the day of experiment were used. Mice were housed for 3 days in a temperature and humidity controlled room before starting experiment, and were fed with standard laboratory chow and water ad libitum.
ID24 was dissolved and sonicated in 0.9% w/v NaCl sterile solution (Sigma-Aldrich) for human administration at the dose concentrations 20 and 40 mg/kg. Compound preparation was conducted just before administration.
Two doses of ID24 were administered with a single intraperitoneal injection to mice: 20 mg/kg and 40 mg/kg. Five animals were treated with each dose of antibiotic. Adverse symptoms were monitored daily for 7 days after injection.
Survivals and clinical/behavioural signs were recorded daily for 14 days.
Main behavioural parameters and clinical signs provided by Irwin Test (Ref. 13).

[20] = test system: E. coli ATCC 25922; experiment: MIC by broth microdilution, E. coli reference strain; type: cell-based, Escherichia coli; details: Table 4
Procedure: as §2
All natural aminoacids have been divided into three groups based on their chemical-physical properties. A total amount of 27 minilibraries, each one containing six peptide in equimolar amounts, were obtained and assayed against E. coli ATCC 25922 as reference strain. MIC (Minimum Inhibitory Concentration) is defined as the lowest concentration inhibiting 100% of visible growth.

[21] = IP administration, up to the highest dose of 40 mg/kg

Compound: Triton X 100
- Haemolysis, % [1]: 100.0%

Compound: CC[C@H](C)[C@H](NC(=O)[C@H](CCCCN)NC(=O)[C@H](CCCCN)NC(=O)[C@@H](N)Cc1c[nH]c2ccccc12)C(=O)N[C@@H](CCCNC(=N)N)C(=O)N[C@H](C(=O)N[C@@H](CCCNC(=N)N)C(=O)N[C@@H](CC(C)C)C(=O)N[C@@H](CO)C(=O)N[C@@H](C)C(=O)NCCCC[C@H](NC(=O)[C@H](C)NC(=O)[C@H](CO)NC(=O)[C@H](CC(C)C)NC(=O)[C@H](CCCNC(=N)N)NC(=O)[C@@H](NC(=O)[C@H](CCCNC(=N)N)NC(=O)[C@@H](NC(=O)[C@H](CCCCN)NC(=O)[C@H](CCCCN)NC(=O)[C@@H](N)Cc1c[nH]c2ccccc12)[C@@H](C)CC)C(C)C)C(=O)NCCCCCCCC(N)=O)C(C)C [ID24, (H-W-KKIRVRLSA)2-Lys-8-Aoa-NH2] (I: H-WKKIRVRLSAK[Aoc]-NH2 / II: H-WKKIRVRLSA; amide I:11-II:C)
- percentage of inhibition of bacteria biofilm [2]: 88.7-99.9%
- CC50 at 24 h [3]: 78 nM
- CC50 at 24 h ([3]; HepG2, 24 hours incubation, MTT, read-out: CC50 ID24): 215 µg/mL
- CC50 at 24 h [4]: 156 nM
- CC50 at 24 h ([4]; HeLa, 24 hours incubation, MTT, read-out: CC50 ID24): 430 µg/mL
- MIC (ug/mL) P. aeruginosa [5]: 32 µg/mL (≈ 11.6 µM)
- MIC value on E. coli EC47 strain [6]: 2 µg/mL (≈ 0.724 µM)
- CC50 at 24 h [7]: 160 nM
- CC50 at 24 h ([7]; HaCat, 24 hours incubation, MTT, read-out: CC50 ID24): 442 µg/mL
- MIC [8]: >128 µg/mL
- MIC Range [8]: >128 µg/mL
- MIC Range [9]: 4 to 32 µg/mL
- MIC Range [10]: 4 to 16 µg/mL
- MIC Range [11]: 8 to 16 µg/mL
- MIC [12]: 32 µg/mL (≈ 11.6 µM)
- MIC Range [13]: 8 to 16 µg/mL
- MIC Range [14]: 16 to 32 µg/mL
- MIC Range [15]: 8 to 32 µg/mL
- MIC Range [16]: 4 to 16 µg/mL
- MIC [17]: >128 µg/mL
- MIC [18]: 4 µg/mL (≈ 1.45 µM)
- symptoms and behavioural alterations (Irwin Test) ([19]; 20 mg/kg single intraperitoneal injection): no behavioural alterations
- symptoms and behavioural alterations (Irwin Test) ([19]; 40 mg/kg single intraperitoneal injection): no behavioural alterations
- adverse symptoms [19, 21]: No adverse symptoms
- deaths [19, 21]: no deaths
- MIC (ug/mL) E. coli [20]: 4 µg/mL (≈ 1.45 µM)
